The record followed here is US6489157B1, “Medium for cultivating microorganisms” (priority 1999, dated 2002).

One series deals with isolate of CHL004. Put plainly: Use as phosphate source for growth. In kind it is cell-based, Pseudomonas aeruginosa. An excerpt: In Wanner (16), it is noted that organophosphates can be directly transported to the cytoplasm of E. coli and S. typhimurium, or they can be hydrolyzed in the periplasm by phosphatases, after which the phosphate is transported to the cytoplasm.

A short description of series [1]: Solubility of Pb(NO3)2 in BPTN, ICAP trace metal analysis before and after 0.2 micrometer filtering. It counts as physicochemical. The following applies: n=4.
In another series the test system is P. aeruginosa CHL004. Put plainly: Growth in medium with Pb(NO3)2. In kind it is cell-based, Pseudomonas aeruginosa. The conditions noted are these: Pb(NO3)2 increased from zero to 1 mM in BPTN. As for the experimental part:
All cultures were grown at 29° C. in a water bath incubator with shaking at a speed of 200 rpm. The cultures were inoculated with a saturated overnight culture in BPTN. Overnight cultures (˜18 hours) were prepared from −80° C. freezer stocks. Data were typically obtained after approximately three or more doublings, and only data between an optical density at 650 nm (OD650) of 0.1 and half the saturation cell density were used for analysis.
Growth rate and saturation cell density studies. The OD650 was measured using a Perkin Elmer Lambda 2 UV/VIS spectrometer. The cell path length was 10 mm. Duplicate 100 μL aliquots were taken from growing cultures and diluted with 900 microliters of a solution having a minimum concentration of 62 mM NaNO3. The same diluent was used within a given growth rate curve. Sixty two mM NaNO3 was determined to be isosmotic with BPTN. Osmolalities were determined using a Precision Instruments microOsmette freezing point depression osmometer calibrated at 0, 100, and 500 mOsm.
Growth in medium with Pb(NO3)2. […] The variances from the growth rate curve fittings for BPTN+1 mM Pb(NO3) 2 are typically equal to or smaller than those for BPTN. […] A linear relationship between CFU/mL and OD650 is expected if the extent of scattering is proportional to the cell density in the cell slurry. […]

Turning to `N[C@@H](COP(=O)(O)O)C(=O)O` [O-Phospho-L-serine], the “use as a phosphate source” value in the series on isolate of CHL004 is “can be used as a phosphate source”.
As for `O=[N+]([O-])[O-].O=[N+]([O-])[O-].[Pb+2]` [Pb(NO3)2], the “Pb^2+ concentration after filtering” value in series [1] (0.2 micrometer PES syringe filter) came to 25.1 ± 1.3 mM. Besides, in series [1], the “Pb^2+ concentration before filtering” value was determined as 24.0 ± 0.6 mM. Moreover, in the series on P. aeruginosa CHL004, the “change of growth rate constant of CHL004 with Pb(NO3)2 concentration” value is reported as “decreases”.
